Experimental data published in patent US20140051635A1, “COMBINATION THERAPY FOR TREATMENT OF CANCER” (UNIVERSITY OF SOUTH ALABAMA, priority 2011, published 2014).
Where two headings read alike, the source gives them in different places.

What was measured:
[1] = test system: SPARC expression in colon cancer cell lines and primary colon cancers; conditions: colon cancer cell lines and primary colon cancers with SPARC promoter hypermethylation; cited from earlier work
[2] = test system: advanced or metastatic solid tumors; conditions: human, in vivo
Text: Eligible patients include those with solid tumors that progressed or were stable as best response on at least one previous therapy. […] Further criteria included: female and male patients; age≧19 years; ECOG PS≦2; adequate bone marrow, liver and heart function; and signed written-informed consent.
Serum and/or tissue samples, where appropriate, were collected for correlative studies.
Outcome evaluation for primary endpoints included: type, incidence, severity, timing, seriousness, and relatedness of adverse events, and laboratory abnormalities; and objective response rate. Outcome evaluation for secondary endpoints included: progression-free survival (PFS); and expression of tissue SPARC protein. Statistical Analysis included the standard 3+3 design. Patients were accrued to each dose level in cohorts of up to 3-6. Escalation was continued until a dose limiting toxicity (DLT) was observed or the highest dose-level was reached. The best response, including complete response (CR), partial response (PR), stable disease (SD), or progression of disease (PD), for each patient was determined. Descriptive statistics were used to summarize all patient characteristics, treatment administration and compliance, and protein biomarkers. Safety data were determined for all patients receiving at least 1 dose of study treatment.

[3] = mice; cited from earlier work
[4] = rats; cited from earlier work
[5] = cited from earlier work
[6] = parenteral, administered weekly; cited from earlier work
MDS = MDS patients; cited from earlier work
AML = conditions: 27 patients assigned to azacitidine; cited from earlier work
higher-risk MDS = conditions: cited from earlier work
[7] = test system: breast cancer, patients pre-treated with doxorubicin; conditions: cited from earlier work

## Nc1ncn([C@H]2C[C@H](O)[C@@H](CO)O2)c(=O)n1 [5Aza-dC]
[1]
  SPARC expression: able to upregulate SPARC expression in most cases

## Nc1ncn([C@@H]2O[C@H](CO)[C@@H](O)[C@H]2O)c(=O)n1 [azacitidine]
[2]
  maximum tolerated dose of azacitadine in this regimen: 75 mg/m^2
[3]
  embryotoxicity and reproductive performance: embryotoxic and reduced the reproductive performance
[4]
  embryotoxicity and reproductive performance: embryotoxic and reduced the reproductive performance
[5]; 75 mg/m^2 IV
  systemic IV clearance: 147 L/h
[5]; 75 mg/m^2 SC vs IV
  bioavailability for the SC dose: ~89%
[5]; 75 mg/m^2 single SC injection or IV infusion over 10 minutes
  tolerability: generally well-tolerated
[6]
  maximum tolerated doses: up to 500 mg/m^2
MDS
  partial remission: rare
AML
  median survival time: 19.3 months
higher-risk MDS; 75 mg/m^2/day x 7 days in 28 day cycles, N=179
  median overall survival: 24.4 months
higher-risk MDS; azacitidine arm
  two-year survival: 51%
higher-risk MDS; in vivo
  tolerability: well tolerated

## CC(=O)O[C@@]12CO[C@@H]1C[C@H](O)[C@@]1(C)C(=O)[C@H](O)C3=C(C)[C@@H](OC(=O)[C@H](O)[C@@H](NC(=O)OC(C)(C)C)c4ccccc4)C[C@@](O)([C@@H](OC(=O)c4ccccc4)[C@H]21)C3(C)C [docetaxel]
[7]
  median overall survival: 11.4 months
  median time to disease progression: 4.4 months
